Test results published in patent US6534447B1, “Herbicidal pyridine compounds” (BASF Aktiengesellschaft, priority 1999, dated 2003).

Experiments:
Format in all cases: in vivo
[1] = test system: eight weed species; test: Pre-emergence herbicidal evaluation, overall weed control; conditions: crop selective dose of 0.1 kg/ha
Excerpt: The pre-emergence herbicidal activity of the compounds of the present invention is exemplified by the following test in which the seeds of a variety of monocotyledonous and dicotyledonous plants are seperately mixed with potting soil and planted on top of approximately one inch of soil in separate post. After planting, the pots are sprayed with the selected aqueous acetone solution. containing test compound in sufficient quantity to provide the equivalent of about 0.025 to 0.4 kg per hectare of test compound per pot. The treated pots are then placed on greenhouse benches, watered and cared for in accordance with conventional greenhouse procedures. From 3 weeks after treatment, the tests are terminated and each pot is examined and rated according to the rating system set forth below.
Thus, there is evidence for the good potential of the compounds of the invention for excellent cross spectrum control of both grasses and broadleaf weeds in key crops.

[2] = test system: Glycine max (GLXMA, soyabeans); test: Pre-emergence herbicidal evaluation (crop); conditions: 3 weeks after treatment
In short: (§1)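 Seeds mixed with potting soil were sprayed after planting with aqueous acetone solution of test compound at about 0.025 to 0.4 kg per hectare. Pots were kept under standard greenhouse care and rated about 3 weeks after treatment.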

[3] = test system: Zea mays (ZEAMX, maize); test: Pre-emergence herbicidal evaluation (crop); conditions: 3 weeks after treatment
In short: as §1

[4] = test system: Triticum aestivum (TRZAW, winter wheat); test: Pre-emergence herbicidal evaluation (crop); conditions: 3 weeks after treatment
In short: as §1

[5] = test system: Echinochloa grus galli (ECHCG, barnyard grass); test: Pre-emergence herbicidal evaluation; conditions: 3 weeks after treatment
In short: as §1

[6] = test system: Ipomoea hederacea (IPOHE, morning glory); test: Pre-emergence herbicidal evaluation; conditions: 3 weeks after treatment
In short: as §1

[7] = test system: Alopecurus myosuroides (ALOMY, black grass); test: Pre-emergence herbicidal evaluation; conditions: 3 weeks after treatment
In short: as §1

[8] = test system: Stellaria media (STEME, chickweed); test: Pre-emergence herbicidal evaluation; conditions: 3 weeks after treatment
In short: as §1

[9] = test system: Galium aparine (GALAP, cleaver); test: Pre-emergence herbicidal evaluation; conditions: 3 weeks after treatment
In short: as §1

[10] = test system: Abutilon theophrasti (ABUTH, velvetleaf); test: Pre-emergence herbicidal evaluation; conditions: 3 weeks after treatment
In short: as §1

[11] = test system: Matricaria inodora (MATIN, mayweed); test: Pre-emergence herbicidal evaluation; conditions: 3 weeks after treatment
In short: as §1

[12] = test system: Setaria viridis (SETVI, green foxtail); test: Pre-emergence herbicidal evaluation; conditions: 3 weeks after treatment
In short: as §1

[13] = test system: weeds; test: Post-emergence herbicidal evaluation, overall weed control; conditions: down to the lowest dose of 0.025 kg/ha
Description: These acetone solutions are diluted with water and the resulting formulations applied at dosage levels equivalent of about 0.025 to 0.4 kg per hectare of test compound per pot. After spraying the plants are placed on greenhouse benches and are cared for in the usual manner, commensurate with conventional greenhouse practices. From 3 weeks after treatment, the seedling plants are examined and rated according to the rating system provided above. A rating 0 indicates growth as untreated control, a rating 9 indicates death.

[14] = test system: Echinochloa grus galli (ECHCG, barnyard grass); test: Post-emergence herbicidal evaluation; conditions: 3 weeks after treatment
In short: (§2)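 Acetone solutions diluted with water, sprayed post-emergence at about 0.025 to 0.4 kg per hectare; plants then kept under standard greenhouse care. Seedlings rated from 3 weeks after treatment on a 0–9 scale, 0 being growth as untreated control and 9 death.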

[15] = test system: Ipomoea hederacea (IPOHE, morning glory); test: Post-emergence herbicidal evaluation; conditions: 3 weeks after treatment
In short: as §2

[16] = test system: Dolium multiflorum (LOLMU, ryegrass); test: Post-emergence herbicidal evaluation; conditions: rate 0.100 kg/ha, 3 weeks after treatment
In short: as §2

[17] = test system: Alopecurus myosuroides (ALOMY, black grass); test: Post-emergence herbicidal evaluation; conditions: 3 weeks after treatment
In short: as §2

[18] = test system: Stellaria media (STEME, chickweed); test: Post-emergence herbicidal evaluation; conditions: 3 weeks after treatment
In short: as §2

[19] = test system: Galium aparine (GALAP, cleaver); test: Post-emergence herbicidal evaluation; conditions: 3 weeks after treatment
In short: as §2

[20] = test system: Abutilon theophrasti (ABUTH, velvetleaf); test: Post-emergence herbicidal evaluation; conditions: 3 weeks after treatment
In short: as §2

[21] = test system: Matricaria inodora (MATIN, mayweed); test: Post-emergence herbicidal evaluation; conditions: 3 weeks after treatment
In short: as §2

[22] = test system: Setaria viridis (SETVI, green foxtail); test: Post-emergence herbicidal evaluation; conditions: 3 weeks after treatment
In short: as §2

In the case of Cc1cc(OCCCSC(F)(F)F)nc(Oc2ccnc(C(F)(F)F)c2)c1 [Example 53], the “weed control (in words)” value [1] is reported as “complete control”, the GLXMA rating ([2]; rate 0.025 kg/ha) is reported as 4 (4 - Injury) and the GLXMA rating ([2]; rate 0.100 kg/ha) is reported as 4 (4 - Injury). For the same compound, the GLXMA rating ([2]; rate 0.400 kg/ha) was 6 (6 - Herbicidal effect), the ZEAMX rating ([3]; rate 0.025 kg/ha) was 2 (2 - Slight effect) and the ZEAMX rating ([3]; rate 0.100 kg/ha) was 4 (4 - Injury). For the same compound, the ZEAMX rating ([3]; rate 0.400 kg/ha) was 4 (4 - Injury), the TRZAW rating ([4]; rate 0.025 kg/ha) was 1 (1 - Trace effect) and the TRZAW rating ([4]; rate 0.100 kg/ha) was 2 (2 - Slight effect). The TRZAW rating ([4]; rate 0.400 kg/ha) was 4 (4 - Injury), the ECHCG rating ([5]; rate 0.025 kg/ha) was 7 (7 - Good herbicidal effect) and the ECHCG rating ([5]; rate 0.100 kg/ha) was 8 (8 - Approaching complete kill). For the same compound, the ECHCG rating ([5]; rate 0.400 kg/ha) was 9 (9 - Complete kill), the IPOHE rating ([6]; rate 0.025 kg/ha) was 8 (8 - Approaching complete kill) and the IPOHE rating ([6]; rate 0.100 kg/ha) was 8 (8 - Approaching complete kill). The IPOHE rating ([6]; rate 0.400 kg/ha) was 9 (9 - Complete kill), the ALOMY rating ([7]; rate 0.025 kg/ha) was 8 (8 - Approaching complete kill) and the ALOMY rating ([7]; rate 0.100 kg/ha) was 8 (8 - Approaching complete kill). For the same compound, the ALOMY rating ([7]; rate 0.400 kg/ha) was 8 (8 - Approaching complete kill), the STEME rating ([8]; rate 0.025 kg/ha) was 9 (9 - Complete kill) and the STEME rating ([8]; rate 0.100 kg/ha) was 9 (9 - Complete kill). For the same compound, the STEME rating ([8]; rate 0.400 kg/ha) was 9 (9 - Complete kill), the GALAP rating ([9]; rate 0.025 kg/ha) was 4 (4 - Injury) and the GALAP rating ([9]; rate 0.100 kg/ha) was 8 (8 - Approaching complete kill). For the same compound, the GALAP rating ([9]; rate 0.400 kg/ha) was 8 (8 - Approaching complete kill), the ABUTH rating ([10]; rate 0.025 kg/ha) was 9 (9 - Complete kill) and the ABUTH rating ([10]; rate 0.100 kg/ha) was 9 (9 - Complete kill). The ABUTH rating ([10]; rate 0.400 kg/ha) was 9 (9 - Complete kill), the MATIN rating ([11]; rate 0.025 kg/ha) was 8 (8 - Approaching complete kill) and the MATIN rating ([11]; rate 0.100 kg/ha) was 8 (8 - Approaching complete kill). For the same compound, the MATIN rating ([11]; rate 0.400 kg/ha) was 9 (9 - Complete kill), the SETVI rating ([12]; rate 0.025 kg/ha) was 8 (8 - Approaching complete kill) and the SETVI rating ([12]; rate 0.100 kg/ha) was 8 (8 - Approaching complete kill). The SETVI rating ([12]; rate 0.400 kg/ha) was 8 (8 - Approaching complete kill), the “activity against weeds (in words)” value [13] was “high levels of activity” and the ECHCG rating ([14]; rate 0.025 kg/ha) was 9 (9 - Complete kill). The ECHCG rating ([14]; rate 0.100 kg/ha) was 9 (9 - Complete kill), the ECHCG rating ([14]; rate 0.400 kg/ha) was 9 (9 - Complete kill) and the IPOHE rating ([15]; rate 0.025 kg/ha) was 9 (9 - Complete kill). For the same compound, the IPOHE rating ([15]; rate 0.100 kg/ha) was 9 (9 - Complete kill), the IPOHE rating ([15]; rate 0.400 kg/ha) was 9 (9 - Complete kill) and the LOLMU rating [16] was 8 (8 - Approaching complete kill). For the same compound, the ALOMY rating ([17]; rate 0.025 kg/ha) was 6 (6 - Herbicidal effect), the ALOMY rating ([17]; rate 0.100 kg/ha) was 8 (8 - Approaching complete kill) and the ALOMY rating ([17]; rate 0.400 kg/ha) was 9 (9 - Complete kill). The STEME rating ([18]; rate 0.025 kg/ha) was 8 (8 - Approaching complete kill), the STEME rating ([18]; rate 0.100 kg/ha) was 9 (9 - Complete kill) and the STEME rating ([18]; rate 0.400 kg/ha) was 9 (9 - Complete kill). For the same compound, the GALAP rating ([19]; rate 0.025 kg/ha) was 6 (6 - Herbicidal effect), the GALAP rating ([19]; rate 0.100 kg/ha) was 9 (9 - Complete kill) and the GALAP rating ([19]; rate 0.400 kg/ha) was 9 (9 - Complete kill). The ABUTH rating ([20]; rate 0.025 kg/ha) was 8 (8 - Approaching complete kill), the ABUTH rating ([20]; rate 0.100 kg/ha) was 9 (9 - Complete kill) and the ABUTH rating ([20]; rate 0.400 kg/ha) was 9 (9 - Complete kill). For the same compound, the MATIN rating ([21]; rate 0.025 kg/ha) was 6 (6 - Herbicidal effect), the MATIN rating ([21]; rate 0.100 kg/ha) was 8 (8 - Approaching complete kill) and the MATIN rating ([21]; rate 0.400 kg/ha) was 8 (8 - Approaching complete kill). The SETVI rating ([22]; rate 0.025 kg/ha) was 9 (9 - Complete kill), the SETVI rating ([22]; rate 0.100 kg/ha) was 9 (9 - Complete kill) and the SETVI rating ([22]; rate 0.400 kg/ha) was 9 (9 - Complete kill).
